Calls of active or inactive are those of the source. No rule for the calls is given here.
Target: Perilipin-5 (Homo sapiens) + 1-acylglycerol-3-phosphate O-acyltransferase ABHD5 (Homo sapiens) (UniProt Q00G26+Q8WTS1)
Assay: ABHD5-PLIN5 interaction inhibitors, dose response, biochemical, luminescence (AID 651677)

Sequence of Perilipin-5 (Homo sapiens) + 1-acylglycerol-3-phosphate O-acyltransferase ABHD5 (Homo sapiens) (Q00G26 whole entry, looked up): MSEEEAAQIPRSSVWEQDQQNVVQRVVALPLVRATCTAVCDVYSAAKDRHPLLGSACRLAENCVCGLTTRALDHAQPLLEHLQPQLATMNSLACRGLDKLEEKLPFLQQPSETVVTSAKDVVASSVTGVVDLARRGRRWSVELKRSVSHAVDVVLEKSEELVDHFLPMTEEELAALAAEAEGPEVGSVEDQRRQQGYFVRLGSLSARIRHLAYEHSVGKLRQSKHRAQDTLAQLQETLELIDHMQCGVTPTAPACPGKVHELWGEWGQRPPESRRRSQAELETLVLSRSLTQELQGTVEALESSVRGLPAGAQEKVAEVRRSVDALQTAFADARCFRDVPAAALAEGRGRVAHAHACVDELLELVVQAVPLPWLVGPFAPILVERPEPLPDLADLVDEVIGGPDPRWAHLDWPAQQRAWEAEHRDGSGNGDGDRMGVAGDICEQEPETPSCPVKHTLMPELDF
Sequence of Perilipin-5 (Homo sapiens) + 1-acylglycerol-3-phosphate O-acyltransferase ABHD5 (Homo sapiens) (Q8WTS1 whole entry, looked up): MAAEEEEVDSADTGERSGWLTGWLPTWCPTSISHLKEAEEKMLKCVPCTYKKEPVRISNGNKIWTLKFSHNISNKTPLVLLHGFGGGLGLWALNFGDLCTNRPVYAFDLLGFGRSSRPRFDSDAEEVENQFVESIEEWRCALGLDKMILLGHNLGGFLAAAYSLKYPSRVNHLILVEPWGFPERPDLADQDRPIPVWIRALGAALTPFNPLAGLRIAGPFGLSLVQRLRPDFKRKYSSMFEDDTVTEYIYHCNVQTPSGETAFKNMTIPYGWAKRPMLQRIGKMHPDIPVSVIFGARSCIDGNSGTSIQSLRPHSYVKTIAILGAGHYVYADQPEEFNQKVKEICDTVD

`CSc1nnc(NC(=O)c2nc(S(=O)(=O)Cc3ccccc3)ncc2Cl)s1` and `CCc1nnc(NC(=O)c2nc(S(=O)(=O)Cc3cccc(C)c3)ncc2Cl)s1` are within 1.5-fold of each other in IC50: 3.83 µM for the first, 3.33 µM for the second.

`COc1ccc(NC(=O)C(c2ccc(C#N)cc2)n2c(=O)c(-c3ccco3)nc3ccccc32)cc1` (stereo not given) and `COc1ccc(NC(=O)C(c2ccccc2)n2c(=O)c(-c3ccco3)nc3ccccc32)cc1` (stereo not given) are within 1.5-fold of each other in IC50: 8.62 µM for the first, 8.79 µM for the second.

First: O=C(NC1CCCCC1)C(C1CC1)n1c(=O)c(-c2ccco2)nc2ccccc21 (stereo not given)
Second: O=C(NC1CCCCC1)C(c1ccc(C(F)(F)F)cc1)n1c(=O)c(-c2ccco2)nc2ccccc21 (stereo not given)
The IC50 of the first is 1.9-fold higher: 2.39 µM for the first, 1.25 µM for the second. The second is the more potent here.

`O=C(NCc1ccccc1)C(c1ccc(-c2ccccc2)cc1)n1c(=O)c(-c2ccco2)nc2ccccc21` (stereo not given) and `O=C(NCc1ccccc1)C(c1ccccc1F)n1c(=O)c(-c2ccco2)nc2ccccc21` (stereo not given) are within 1.5-fold of each other in IC50: 2.7 µM for the first, 2.27 µM for the second.

First: CCOc1cc(N)c(Cl)cc1C(=O)NCC1CN(Cc2ccc(F)cc2)CCO1 (stereo not given)
Second: O=c1[nH]c(C2CCN(S(=O)(=O)c3ccc(S(=O)(=O)NC4CC4)cc3)CC2)nc2c1nnn2Cc1ccc(F)cc1
The IC50 of the first is 2.3-fold lower: 2.5 µM for the first, 5.66 µM for the second.

Going from `Cc1cccc(C)c1NC(=O)C(c1ccnc2ccccc12)n1c(=O)c(-c2ccco2)nc2ccccc21` (stereo not given) to `O=C(NC1CCCCC1)C(c1ccc(-c2ccccc2)cc1)n1c(=O)c(-c2ccco2)nc2ccccc21` (stereo not given), the IC50 falls from 3.55 µM to 1.54 µM (2.3-fold).

Compared with `CCN1CCN(Cc2ccc(NC(=O)c3ccc(C)c(/C=C/c4cnc(Nc5cc(N6CCNCC6)nc(C)n5)cn4)c3)cc2C(F)(F)F)CC1`, `Cc1cc(C)c(NC(=O)CN2CCN3CCCC3C2)c(C)c1` (stereo not given) is 3.6-fold higher in IC50: 2.58 µM for the first, 9.27 µM for the second.

Going from `CC(=O)Nc1ccc(OCc2cn(CC(=O)c3ccc(O)cc3)nn2)cc1` to `O=C(NCc1ccccc1)C(C1CC1)n1c(=O)c(-c2ccco2)nc2ccccc21` (stereo not given), the IC50 rises from 2.32 µM to 7.2 µM (3.1-fold). The first is the more potent here.

First: CCSc1ccc2c(c1)N(CCCN1CCN(C)CC1)c1ccccc1S2
Second: Cc1nc2c(o1)CCc1ccccc1C2N1CCN(C)CC1 (stereo not given)
The IC50 of the first is 1.5-fold lower: 5.86 µM for the first, 8.83 µM for the second.

Compared with `CCOC(=O)C1C(OC(=O)c2ccccc2)CC2CCC1N2C` (stereo not given), `CCN(CC)CCC(C)OC(c1ccccc1)c1ccccc1` (stereo not given) is 2.7-fold lower in IC50: 9.39 µM for the first, 3.43 µM for the second.

`CCCCn1c(SCC(=O)NCc2ccco2)nnc1-c1ccoc1C` and `C#CCN(C[C@@H]1[C@@H](OC(=O)NCCCCCC)[C@@H](OC(=O)NCCCCCC)Cn2c(=O)ccc(=O)n21)S(=O)(=O)c1ccc(C)cc1` are within 1.5-fold of each other in IC50: 4.82 µM for the first, 4.74 µM for the second.

First: N#Cc1ncc(Cc2ccccc2)nc1C#N
Second: Cc1ccc2nc3cc([N+](=O)[O-])cc([N+](=O)[O-])c3cc2c1
The IC50 of the first is 14-fold higher: 8.58 µM for the first, 0.6 µM for the second.

In the case of `CC1=CC2C(C(O)CC3(C)C2CC(C)C32OCOC23COCO3)C2(C)C/C(=C\O)C(=O)C=C12` (stereo not given), the IC50 is reported as 3.27 µM.

With `CN(C)CCCNC(=O)c1ccc(-c2nc(-c3ccc(Cl)cc3)cs2)cc1` the IC50 was “inactive”.
In the case of `CCCC(=O)NC(c1cccc([N+](=O)[O-])c1)c1ccc2cccnc2c1O` (stereo not given), the IC50 is reported as > 39.8 µM (inactive).
For `O=S(=O)(NC1=NCCCCC1)c1ccc2sc(NS(=O)(=O)c3ccc4ccccc4c3)nc2c1`, the IC50 was “inactive”.
`O=C(COc1ccccc1Cl)Nc1ccc(N2CCCC2)cc1` was tested, and the IC50 was > 39.9 µM (inactive).
With `COc1cccc2sc(N(CCCN(C)C)C(=O)COc3ccc(Cl)cc3)nc12` the IC50 was “inactive”.

Reference: PubChem BioAssay AID651677 (The Scripps Research Institute Molecular Screening Center, 2012)
